Test results published in PMC6316600, “Analgesic Activity of Acid-Sensing Ion Channel 3 (ASIС3) Inhibitors: Sea Anemones Peptides Ugr9-1 and APETx2 versus Low Molecular Weight Compounds” (Marine Drugs, 2018).
Bridge positions count the residues as written; N and C are the ends. Peptide text beside a SMILES is read from it.

Key:
mice = experiment: Open field test; assay type: in vivo, CD-1 mice; details: 1 mg/kg intramuscular, 4 h before; n = 6–7
Protocol: An open field test was carried out on mice to estimate the possible sedative effects of compounds administration. No statistically significant changes were detected between ASIC3 antagonist-treated groups and the control animals group in 5-min observations of 12 parameters.
Figure 2 Open field experiments on mice. Administration of compounds at a 1 mg/kg dose intramuscularly was done 4 h before of the measurements. (A) Travelling distance and (B) locomotion activity presented as mean ± SEM for 5-min recording period (n = 6–7).
Adult male CD-1 mice (Animal Breeding Facility Branch of Shemyakin-Ovchinnikov Institute of Bioorganic Chemistry, Russian Academy of Sciences, Pushchino, Russia) weighing 20–25 g were used. Animals that originally passed clinical examination that confirmed no deviations in health were divided into groups (at least eight male mice per group) using the principle of randomization. The average body weight of animals in each group was not statistically different between groups. Animals were housed at room temperature (23 ± 2 °C) and subjected to a 12-h light-dark cycle with food and water available ad libitum. All experiments were performed after receiving approval from the Animal Care and Use Committee of the Branch of the Institute of Bioorganic Chemistry, Russian Academy of Sciences (IBCh RAS) (Pushchino, Russia Federation). The samples were administered intramuscularly 2 h before testing (4 h in the open field test). The initial dose of 1 mg/kg was investigated for all samples, which was further reduced 5, 50, and 500 times for peptides.
In the locomotion measurements, exploration and anxiety were evaluated in the motor activity test on a computerized TSE Multi Conditioning System (TSE Systems GmbH, Bad Homburg, Germany). Four hours after the administration of the sample, the measurement was made, which lasted for 3 min. […]
The data significance in animal tests was determined by an analysis of variance followed by a Tukey’s test. […]

[1] = test system: CFA-induced thermal hyperalgesia; details: cited from earlier work
Protocol: An inhibition of ASIC3 was reported to be an attractive approach to producing analgesia. […] Other nonspecific substances can also influence ASIC3 activity. […] Several ligands with inhibitory properties were found for this receptor, each of which was able to induce analgesia in animal tests. The most well-known inhibitor APETx2 in various studies has been tested on models of acid-induced muscle pain model, CFA-induced inflammatory pain model (at doses of 0.07, 0.22 and 2.2 µM). Ugr9-1 was studied in models of CFA-induced thermal hyperalgesia and acetic acid writhing test (at doses of 0.5, 0.1, and 0.01 mg/kg). […] The nonspecific actions on other cellular targets and the changes of ASIC3 involvement in the inflammatory process induced by the high antagonists’ concentration for 2 h are suspected. We conclude that the inhibition of both components of ASIC3 currents could be beneficial but could be reversed by hormesis in high doses and during a long exposure to ...

[2] = cited from earlier work
Source text: Several explanations could be proposed. First, the result of partial ASIC1a inhibition is unpredictable. Second, better bioavailability of sevanol compared with Ugr9-1 can enhance the effect. Peptides from sea anemones have rather shor ...

ASIC1a = details: cited from earlier work
Source text: An inhibition of ASIC3 was reported to be an attractive approach to producing analgesia. […] Other nonspecific substances can also influence ASIC3 activity.

| Compound | Travelled distance, time spent freezing, distance in the central area versus control (mice) | Dose dependence, CFA thermal hyperalgesia test ([1]; intravenous, 30 min before testing) | Circulating half-life [2] | Time of final elimination from the blood flow [2] | Effect on CFA-induced thermal hyperalgesia ([1]; 100 mg/kg i.p.) | Inhibition of ASIC1a (ASIC1a) |
| --- | --- | --- | --- | --- | --- | --- |
| CC[C@H](C)[C@H](N)C(=O)N[C@@H](CO)C(=O)N[C@H](C(=O)N[C@@H](CC(=O)O)C(=O)N1CCC[C@H]1C(=O)N1CCC[C@H]1C(=O)N[C@H]1CSSC[C@@H](C(=O)NCC(=O)N[C@@H](C)C(=O)N[C@H](C(=O)O)C(C)C)NC(=O)CNC(=O)[C@H](Cc2ccc(O)cc2)NC(=O)[C@H](C)NC(=O)[C@H](CC(=O)O)NC(=O)[C@H](Cc2ccc(O)cc2)NC(=O)[C@H](C(C)C)NC(=O)[C@@H]2CSSC[C@H](NC(=O)[C@H](Cc3ccccc3)NC(=O)[C@H](CCCNC(=N)N)NC1=O)C(=O)N[C@@H](Cc1ccc(O)cc1)C(=O)N[C@@H](Cc1c[nH]cn1)C(=O)N[C@@H](CCCNC(=N)N)C(=O)N[C@@H](CC(=O)O)C(=O)NCC(=O)N[C@@H](CO)C(=O)NCC(=O)N[C@@H](CC(N)=O)C(=O)N2)[C@@H](C)CC [Ugr9-1] (H-ISIDPPCRFCYHRDGSGNCVYDAYGCGAV-OH; disulfide 7-26, 10-19; N-terminus and C-terminus assumed) | each of these differences was nonsignificant | clearly dose-dependent |  |  |  |  |
| O=C(O)Cc1ccccc1Nc1c(Cl)cccc1Cl [diclofenac, reference compound] |  |  | about 2 h | 10 h | significantly reduced CFA-induced thermal hyperalgesia |  |
| O=C(O)C[C@H](C(=O)O)[C@@H](OC(=O)C1=Cc2cc(O)c(O)cc2[C@@H](c2ccc(O)c(O)c2)[C@@H]1C(=O)O[C@@H](C(=O)O)[C@H](CC(=O)O)C(=O)O)C(=O)O [sevanol] | each of these differences was nonsignificant |  |  |  |  | able to inhibit ASIC1a |
